Measurements reported in US20250145665A1, “MACROCYCLIC PEPTIDES USEFUL AS MODULATORS OF TNF ALPHA” (Bristol-Myers Squibb Company, priority 2023, published 2025).
Values belong to the compound of their own block, whether it stands above or below them. Positions of bridges follow the written chain, without caps; N, C: chain ends. Non-standard residues stand in square brackets, D forms with d. Residues, ends and D or L forms follow the SMILES beside them. Bip(4'-COOH) = N[C@@H](Cc1ccc(-c2ccc(C(=O)O)cc2)cc1)C(=O)O; Bip(4'-NHAc) = CC(=O)Nc1ccc(-c2ccc(C[C@H](N)C(=O)O)cc2)cc1; Ala(morpholin-4-yl) = N[C@@H](CN1CCOCC1)C(=O)O; Phe(3-CONH2) = NC(=O)c1cccc(C[C@H](N)C(=O)O)c1; Bip = N[C@@H](Cc1ccc(-c2ccccc2)cc1)C(=O)O; Phe(2-Me) = Cc1ccccc1C[C@H](N)C(=O)O; Val(3-OH) = CC(C)(O)[C@H](N)C(=O)O; 2Pal = N[C@@H](Cc1ccccn1)C(=O)O; Aze = O=C(O)[C@@H]1CCN1; Sar = CNCC(=O)O

Molecular target: TNFα (Homo sapiens, UniProt P01375)
Test: TNF-Induced HEK-Blue Assay
Assay type: cell-based
Details: HEK-Blue-CD40L cells, NF-kB-driven secreted alkaline phosphatase reporter; TNFα 0.5 ng/ml; 18 h; read-out: TNF induced HEK-Blue assay IC50 value

Chain of TNFα (P01375 77-233 limits assumed): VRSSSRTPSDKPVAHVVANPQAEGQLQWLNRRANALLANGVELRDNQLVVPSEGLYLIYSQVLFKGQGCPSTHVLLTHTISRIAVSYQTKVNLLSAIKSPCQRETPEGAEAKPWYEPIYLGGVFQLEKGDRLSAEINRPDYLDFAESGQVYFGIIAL

SMILES: CC(=O)Nc1ccc(-c2ccc(C[C@@H]3NC(=O)[C@H](Cc4ccc(-c5ccc(C(=O)O)cc5)cc4)NC(=O)[C@H](CN4CCOCC4)NC(=O)CSC[C@@H](C(=O)NCC(N)=O)NC(=O)[C@H](CC(C)C)NC(=O)[C@H](CCCNC(=N)N)NC(=O)[C@H](C(C)C)NC(=O)[C@@H]4CCCN4C(=O)[C@H](C(C)C)NC(=O)[C@H](CCCNC(=N)N)NC(=O)[C@H](CC(=O)O)NC(=O)[C@H](Cc4ccc(O)cc4)NC(=O)CN(C)C3=O)cc2)cc1 [Example 191] ({CH2CO}-[Ala(morpholin-4-yl)][Bip(4'-COOH)][Bip(4'-NHAc)][Sar]YDRVPVRLCG-NH2; thioether N-13)
IC50: 50 to 200 nM

SMILES: CC(=O)Nc1ccc(-c2ccc(C[C@@H]3NC(=O)[C@H](Cc4ccc(-c5ccccc5)cc4)NC(=O)[C@H](CN4CCOCC4)NC(=O)CSC[C@@H](C(=O)NCC(N)=O)NC(=O)[C@H](CC(C)C)NC(=O)[C@H](CCCNC(=N)N)NC(=O)[C@H](C(C)C)NC(=O)[C@@H]4CCCN4C(=O)[C@H](C(C)C)NC(=O)[C@H](CCCNC(=N)N)NC(=O)[C@H](CC(=O)O)NC(=O)[C@H](Cc4ccc(O)cc4)NC(=O)CNC3=O)cc2)cc1 [Example 192] ({CH2CO}-[Ala(morpholin-4-yl)][Bip][Bip(4'-NHAc)]GYDRVPVRLCG-NH2; thioether N-13)
IC50: 50 to 200 nM

SMILES: CC(=O)Nc1ccc(-c2ccc(C[C@@H]3NC(=O)[C@H](Cc4ccc(-c5ccccc5)cc4)NC(=O)[C@H](C(C)(C)O)NC(=O)CSC[C@@H](C(=O)NCC(N)=O)NC(=O)[C@H](CC(C)C)NC(=O)[C@H](CCCNC(=N)N)NC(=O)[C@H](C(C)C)NC(=O)[C@@H]4CCCN4C(=O)[C@H](C(C)C)NC(=O)[C@H](CCCNC(=N)N)NC(=O)[C@H](CC(=O)O)NC(=O)[C@H](Cc4ccc(O)cc4)NC(=O)CN(C)C3=O)cc2)cc1 [Example 193] ({CH2CO}-[Val(3-OH)][Bip][Bip(4'-NHAc)][Sar]YDRVPVRLCG-NH2; thioether N-13)
IC50: 50 to 200 nM

SMILES: CC(=O)Nc1ccc(-c2ccc(C[C@@H]3NC(=O)[C@H](Cc4ccc(-c5ccccc5)cc4)NC(=O)[C@H](CN4CCOCC4)NC(=O)CSC[C@@H](C(=O)NCC(N)=O)NC(=O)[C@H](CC(C)C)NC(=O)[C@H](Cc4ccc(O)cc4)NC(=O)[C@H](C(C)C)NC(=O)[C@@H]4CCCN4C(=O)[C@H](C(C)C)NC(=O)[C@H](CCCNC(=N)N)NC(=O)[C@H](CC(=O)O)NC(=O)[C@@H]4CCCN4C(=O)CN(C)C3=O)cc2)cc1 [Example 196] ({CH2CO}-[Ala(morpholin-4-yl)][Bip][Bip(4'-NHAc)][Sar]PDRVPVYLCG-NH2; thioether N-13)
IC50: < 50 nM

SMILES: CC(=O)Nc1ccc(-c2ccc(C[C@@H]3NC(=O)[C@H](Cc4ccc(-c5ccc(C(=O)O)cc5)cc4)NC(=O)[C@H](CN4CCOCC4)NC(=O)CSC[C@@H](C(=O)NCC(N)=O)NC(=O)[C@H](CC(C)C)NC(=O)[C@H](Cc4cccc(C(N)=O)c4)NC(=O)[C@H](C(C)C)NC(=O)[C@@H]4CCCN4C(=O)[C@H](C(C)C)NC(=O)[C@@H](CCCNC(=N)N)NC(=O)[C@H](CC(=O)O)NC(=O)[C@H](Cc4ccccn4)NC(=O)CN(C)C3=O)cc2)cc1 [Example 200] ({CH2CO}-[Ala(morpholin-4-yl)][Bip(4'-COOH)][Bip(4'-NHAc)][Sar][2Pal]D[dR]VPV[Phe(3-CONH2)]LCG-NH2; thioether N-13)
IC50: 50 to 200 nM

Other lines, results leading:

IC50: 50 to 200 nM
SMILES: CC(=O)Nc1ccc(-c2ccc(C[C@@H]3NC(=O)[C@H](Cc4ccc(-c5ccc(C(=O)O)cc5)cc4)NC(=O)[C@H](CN4CCOCC4)NC(=O)CSC[C@@H](C(=O)NCC(N)=O)NC(=O)[C@H](CC(C)C)NC(=O)[C@H](Cc4ccccn4)NC(=O)[C@H](C(C)C)NC(=O)[C@@H]4CCN4C(=O)[C@H](C(C)C)NC(=O)[C@@H](CCCNC(=N)N)NC(=O)[C@H](CC(=O)O)NC(=O)[C@H](Cc4ccccn4)NC(=O)CN(C)C3=O)cc2)cc1 [Example 190] ({CH2CO}-[Ala(morpholin-4-yl)][Bip(4'-COOH)][Bip(4'-NHAc)][Sar][2Pal]D[dR]V[Aze]V[2Pal]LCG-NH2; thioether N-13)

IC50: 50 to 200 nM
SMILES: CC(=O)Nc1ccc(-c2ccc(C[C@@H]3NC(=O)[C@H](Cc4ccc(-c5ccccc5)cc4)NC(=O)[C@H](C(C)(C)O)NC(=O)CSC[C@@H](C(=O)NCC(N)=O)NC(=O)[C@H](CC(C)C)NC(=O)[C@H](Cc4ccc(O)cc4)NC(=O)[C@H](C(C)C)NC(=O)[C@@H]4CCCN4C(=O)[C@H](C(C)C)NC(=O)[C@H](CCCNC(=N)N)NC(=O)[C@H](CC(=O)O)NC(=O)[C@@H]4CCCN4C(=O)CN(C)C3=O)cc2)cc1 [Example 194] ({CH2CO}-[Val(3-OH)][Bip][Bip(4'-NHAc)][Sar]PDRVPVYLCG-NH2; thioether N-13)

IC50: < 50 nM
SMILES: CC(=O)Nc1ccc(-c2ccc(C[C@@H]3NC(=O)[C@H](Cc4ccc(-c5ccccc5)cc4)NC(=O)[C@H](CN4CCOCC4)NC(=O)CSC[C@@H](C(=O)NCC(N)=O)NC(=O)[C@H](CC(C)C)NC(=O)[C@H](CCCNC(=N)N)NC(=O)[C@H](C(C)C)NC(=O)[C@@H]4CCCN4C(=O)[C@H](C(C)C)NC(=O)[C@@H](CCCNC(=N)N)NC(=O)[C@H](CC(=O)O)NC(=O)[C@H](Cc4ccc(O)cc4)NC(=O)CN(C)C3=O)cc2)cc1 [Example 195] ({CH2CO}-[Ala(morpholin-4-yl)][Bip][Bip(4'-NHAc)][Sar]YD[dR]VPVRLCG-NH2; thioether N-13)

IC50: 50 to 200 nM
SMILES: CC(=O)Nc1ccc(-c2ccc(C[C@@H]3NC(=O)[C@H](Cc4ccc(-c5ccccc5)cc4)NC(=O)[C@H](Cc4c[nH]c5ccccc45)NC(=O)CSC[C@@H](C(=O)NCC(N)=O)NC(=O)[C@H](CC(C)C)NC(=O)[C@H](Cc4ccc(O)cc4)NC(=O)[C@H](C(C)C)NC(=O)[C@@H]4CCCN4C(=O)[C@H](C(C)C)NC(=O)[C@@H](CCCNC(=N)N)NC(=O)[C@H](CC(=O)O)NC(=O)[C@H](Cc4ccccn4)NC(=O)CN(C)C3=O)cc2)cc1 [Example 197] ({CH2CO}-W[Bip][Bip(4'-NHAc)][Sar][2Pal]D[dR]VPVYLCG-NH2; thioether N-13)

IC50: < 50 nM
SMILES: CC(=O)Nc1ccc(-c2ccc(C[C@@H]3NC(=O)[C@H](Cc4ccc(-c5ccc(C(=O)O)cc5)cc4)NC(=O)[C@H](CN4CCOCC4)NC(=O)CSC[C@@H](C(=O)NCC(N)=O)NC(=O)[C@H](CC(C)C)NC(=O)[C@H](CCCNC(=N)N)NC(=O)[C@H](C)NC(=O)[C@@H]4CCCN4C(=O)[C@H](C(C)C)NC(=O)[C@@H](CCCNC(=N)N)NC(=O)[C@H](CC(=O)O)NC(=O)[C@@H]4CCCN4C(=O)CN(C)C3=O)cc2)cc1 [Example 198] ({CH2CO}-[Ala(morpholin-4-yl)][Bip(4'-COOH)][Bip(4'-NHAc)][Sar]PD[dR]VPARLCG-NH2; thioether N-13)

IC50: < 50 nM
SMILES: CC(=O)Nc1ccc(-c2ccc(C[C@@H]3NC(=O)[C@H](Cc4ccc(-c5ccc(C(=O)O)cc5)cc4)NC(=O)[C@H](CN4CCOCC4)NC(=O)CSC[C@@H](C(=O)NCC(N)=O)NC(=O)[C@H](CC(C)C)NC(=O)[C@H](Cc4ccccc4C)NC(=O)[C@H](C(C)C)NC(=O)[C@@H]4CCCN4C(=O)[C@H](C(C)C)NC(=O)[C@@H](CCCNC(=N)N)NC(=O)[C@H](CC(=O)O)NC(=O)[C@H](Cc4ccccn4)NC(=O)CN(C)C3=O)cc2)cc1 [Example 199] ({CH2CO}-[Ala(morpholin-4-yl)][Bip(4'-COOH)][Bip(4'-NHAc)][Sar][2Pal]D[dR]VPV[Phe(2-Me)]LCG-NH2; thioether N-13)
